Measurements as given in patent US9499550B2 (BRISTOL-MYERS SQUIBB COMPANY, priority 2012, dated 2016).

Tests used:
[1] = system: HCV genotype 1a (H77 strain) replicon in HUH-7 cells; assay: HCV replicon luciferase reporter assay, genotype 1a; assay type: cell-based; settings: Hepatitis C virus, Huh-7, 72 h, HCV genotype 1a replicon luciferase assay, 3 days incubation, range class, read-out: LE_1a (EC50, range)
Summary of the method: (§1)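 Replicon inhibition for both genotypes was measured as Renilla luciferase signal (EnduRen, 7.5 μM final, 2 h) after 3-day, 37° C exposure of replicon-bearing HUH-7 cells in 4% FCS DMEM, 0.5% DMSO. The 1b construct carries S1179I; the 1a H77 construct carries P1496L and S2204I. Twenty-point, 3-fold dilutions were fitted four-parametrically for EC50, and CC50 was taken from multiplexed Cell Titer-Blue.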

[2] = system: HCV genotype 1b (Con1) replicon in HUH-7 cells; assay: HCV replicon luciferase reporter assay, genotype 1b; assay type: cell-based; settings: Hepatitis C virus, Huh-7, 72 h, HCV genotype 1b replicon luciferase assay, 3 days incubation, range class, read-out: LE_1b (EC50, range)
Summary of the method: as §1

SMILES | EC50 [1] [nM] | EC50 [2] [nM]
COc1ccc2c(O[C@@H]3C[C@H]4C(=O)N[C@]5(C(=O)NS(=O)(=O)C6(C)CC6)C[C@H]5/C=C\CC[C@@H](C)C[C@@H](C)[C@H](NC(=O)OCC5(C)CC5)C(=O)N4C3)nc(-c3ccc(F)cc3)cc2c1 [Compound 3085, (1-methylcyclopropyl)methyl ((2R,6S,7R,9R,13aS,14aR,16aS,Z)-2-((3-(4-fluorophenyl)-6-methoxyisoquinolin-1-yl)oxy)-7,9-dimethyl-14a-(((1-methylcyclopropyl)sulfonyl)carbamoyl)-5,16-dioxo-1,2,3,5,6,7,8,9,10,11,13a,14,14a,15,16,16a-hexadecahydrocyclopropa[e]pyrrolo[1,2-a][1,4]diazacyclopentadecin-6-yl)carbamate] | < 5.46 | < 5.46
COc1ccc2c(O[C@@H]3C[C@H]4C(=O)N[C@]5(C(=O)NS(=O)(=O)C6(C)CC6)C[C@H]5/C=C\CC[C@H](C)C[C@@H](C)[C@H](NC(=O)O[C@@H]5C[C@@H]6C[C@@H]6C5)C(=O)N4C3)nc(-c3ccc(F)cc3)cc2c1 [Compound 3086, (1R,3r,5S)-bicyclo[3.1.0]hexan-3-yl((2R,6S,7R,9S,13aS,14aR,16aS,Z)-2-((3-(4-fluorophenyl)-6-methoxyisoquinolin-1-yl)oxy)-7,9-dimethyl-14a-(((1-methylcyclopropyl)sulfonyl)carbamoyl)-5,16-dioxo-1,2,3,5,6,7,8,9,10,11,13a,14,14a,15,16,16a-hexadecahydrocyclopropa[e]pyrrolo[1,2-a][1,4]diazacyclopentadecin-6-yl)carbamate] | < 5.46 | < 5.46
COc1ccc2c(O[C@@H]3C[C@H]4C(=O)N[C@]5(C(=O)NS(=O)(=O)C6(C)CC6)C[C@H]5/C=C\CC[C@@H](C)C[C@@H](C)[C@H](NC(=O)O[C@@H]5C[C@@H]6C[C@@H]6C5)C(=O)N4C3)nc(-c3ccc(F)cc3)cc2c1 [Compound 3087, (1R,3r,5S)-bicyclo[3.1.0]hexan-3-yl((2R,6S,7R,9R,13aS,14aR,16aS,Z)-2-((3-(4-fluorophenyl)-6-methoxyisoquinolin-1-yl)oxy)-7,9-dimethyl-14a-(((1-methylcyclopropyl)sulfonyl)carbamoyl)-5,16-dioxo-1,2,3,5,6,7,8,9,10,11,13a,14,14a,15,16,16a-hexadecahydrocyclopropa[e]pyrrolo[1,2-a][1,4]diazacyclopentadecin-6-yl)carbamate] | < 5.46 | < 5.46
COc1ccc2c(O[C@@H]3C[C@H]4C(=O)N[C@]5(C(=O)NS(=O)(=O)C6(C)CC6)C[C@H]5/C=C\CC[C@H](C)C[C@@H](C)[C@H](NC(=O)OC(C)(C)C)C(=O)N4C3)nc(N3CCOCC3)cc2c1 [Compound 3088, tert-butyl ((2R,6S,7R,9S,13aS,14aR,16aS,Z)-2-((6-methoxy-3-morpholinoisoquinolin-1-yl)oxy)-7,9-dimethyl-14a-(((1-methylcyclopropyl)sulfonyl)carbamoyl)-5,16-dioxo-1,2,3,5,6,7,8,9,10,11,13a,14,14a,15,16,16a-hexadecahydrocyclopropa[e]pyrrolo[1,2-a][1,4]diazacyclopentadecin-6-yl)carbamate] | < 5.46 | < 5.46
COc1ccc2c(O[C@@H]3C[C@H]4C(=O)N[C@]5(C(=O)NS(=O)(=O)C6(C)CC6)C[C@H]5/C=C\CC[C@@H](C)C[C@@H](C)[C@H](NC(=O)OC(C)(C)C)C(=O)N4C3)nc(N3CCOCC3)cc2c1 [Compound 3089, tert-butyl ((2R,6S,7R,9R,13aS,14aR,16aS,Z)-2-((6-methoxy-3-morpholinoisoquinolin-1-yl)oxy)-7,9-dimethyl-14a-(((1-methylcyclopropyl)sulfonyl)carbamoyl)-5,16-dioxo-1,2,3,5,6,7,8,9,10,11,13a,14,14a,15,16,16a-hexadecahydrocyclopropa[e]pyrrolo[1,2-a][1,4]diazacyclopentadecin-6-yl)carbamate] | < 5.46 | < 5.46
COc1ccc2c(O[C@@H]3C[C@H]4C(=O)N[C@]5(C(=O)NS(=O)(=O)C6(C)CC6)C[C@H]5/C=C\CC[C@H](C)C[C@@H](C)[C@H](NC(=O)OCC5(C)CC5)C(=O)N4C3)nc(N3CCOCC3)cc2c1 [Compound 3090, (1-methylcyclopropyl)methyl ((2R,6S,7R,9S,13aS,14aR,16aS,Z)-2-((6-methoxy-3-morpholinoisoquinolin-1-yl)oxy)-7,9-dimethyl-14a-(((1-methylcyclopropyl)sulfonyl)carbamoyl)-5,16-dioxo-1,2,3,5,6,7,8,9,10,11,13a,14,14a,15,16,16a-hexadecahydrocyclopropa[e]pyrrolo[1,2-a][1,4]diazacyclopentadecin-6-yl)carbamate] | 4.82 to 103 | < 5.46
COc1ccc2c(O[C@@H]3C[C@H]4C(=O)N[C@]5(C(=O)NS(=O)(=O)C6(C)CC6)C[C@H]5/C=C\CC[C@@H](C)C[C@@H](C)[C@H](NC(=O)OCC5(C)CC5)C(=O)N4C3)nc(N3CCOCC3)cc2c1 [Compound 3091, (1-methylcyclopropyl)methyl ((2R,6S,7R,9R,13aS,14aR,16aS,Z)-2-((6-methoxy-3-morpholinoisoquinolin-1-yl)oxy)-7,9-dimethyl-14a-(((1-methylcyclopropyl)sulfonyl)carbamoyl)-5,16-dioxo-1,2,3,5,6,7,8,9,10,11,13a,14,14a,15,16,16a-hexadecahydrocyclopropa[e]pyrrolo[1,2-a][1,4]diazacyclopentadecin-6-yl)carbamate] | < 5.46 | < 5.46
COc1ccc2c(O[C@@H]3C[C@H]4C(=O)N[C@]5(C(=O)NS(=O)(=O)C6(C)CC6)C[C@H]5/C=C\CC[C@H](C)C[C@@H](C)[C@H](NC(=O)O[C@H](C)C(F)(F)F)C(=O)N4C3)nc(N3CCOCC3)cc2c1 [Compound 3092, (R)-1,1,1-trifluoropropan-2-yl ((2R,6S,7R,9S,13aS,14aR,16aS,Z)-2-((6-methoxy-3-morpholinoisoquinolin-1-yl)oxy)-7,9-dimethyl-14a-(((1-methylcyclopropyl)sulfonyl)carbamoyl)-5,16-dioxo-1,2,3,5,6,7,8,9,10,11,13a,14,14a,15,16,16a-hexadecahydrocyclopropa[e]pyrrolo[1,2-a][1,4]diazacyclopentadecin-6-yl)carbamate] | < 5.46 | < 5.46
COc1ccc2c(O[C@@H]3C[C@H]4C(=O)N[C@]5(C(=O)NS(=O)(=O)C6(C)CC6)C[C@H]5/C=C\CC[C@@H](C)C[C@@H](C)[C@H](NC(=O)O[C@H](C)C(F)(F)F)C(=O)N4C3)nc(N3CCOCC3)cc2c1 [Compound 3093, (R)-1,1,1-trifluoropropan-2-yl ((2R,6S,7R,9R,13aS,14aR,16aS,Z)-2-((6-methoxy-3-morpholinoisoquinolin-1-yl)oxy)-7,9-dimethyl-14a-(((1-methylcyclopropyl)sulfonyl)carbamoyl)-5,16-dioxo-1,2,3,5,6,7,8,9,10,11,13a,14,14a,15,16,16a-hexadecahydrocyclopropa[e]pyrrolo[1,2-a][1,4]diazacyclopentadecin-6-yl)carbamate] | < 5.46 | < 5.46
COc1ccc2c(O[C@@H]3C[C@H]4C(=O)N[C@]5(C(=O)NS(=O)(=O)C6(C)CC6)C[C@H]5/C=C\CC[C@H](C)C[C@@H](C)[C@H](NC(=O)OC(C)(C)C(F)(F)F)C(=O)N4C3)nc(N3CCOCC3)cc2c1 [Compound 3094, 1,1,1-trifluoro-2-methylpropan-2-yl((2R,6S,7R,9S,13aS,14aR,16aS,Z)-2-((6-methoxy-3-morpholinoisoquinolin-1-yl)oxy)-7,9-dimethyl-14a-(((1-methylcyclopropyl)sulfonyl)carbamoyl)-5,16-dioxo-1,2,3,5,6,7,8,9,10,11,13a,14,14a,15,16,16a-hexadecahydrocyclopropa[e]pyrrolo[1,2-a][1,4]diazacyclopentadecin-6-yl)carbamate] | 4.82 to 103 | < 5.46
COc1ccc2c(O[C@@H]3C[C@H]4C(=O)N[C@]5(C(=O)NS(=O)(=O)C6(C)CC6)C[C@H]5/C=C\CC[C@@H](C)C[C@@H](C)[C@H](NC(=O)OC(C)(C)C(F)(F)F)C(=O)N4C3)nc(N3CCOCC3)cc2c1 [Compound 3095, 1,1,1-trifluoro-2-methylpropan-2-yl((2R,6S,7R,9R,13aS,14aR,16aS,Z)-2-((6-methoxy-3-morpholinoisoquinolin-1-yl)oxy)-7,9-dimethyl-14a-(((1-methylcyclopropyl)sulfonyl)carbamoyl)-5,16-dioxo-1,2,3,5,6,7,8,9,10,11,13a,14,14a,15,16,16a-hexadecahydrocyclopropa[e]pyrrolo[1,2-a][1,4]diazacyclopentadecin-6-yl)carbamate] | < 5.46 | < 5.46
COc1ccc2c(O[C@@H]3C[C@H]4C(=O)N[C@]5(C(=O)NS(=O)(=O)C6(C)CC6)C[C@H]5/C=C\CC[C@H](C)C[C@@H](C)[C@H](NC(=O)O[C@@H]5C[C@@H]6C[C@@H]6C5)C(=O)N4C3)nc(N3CCOCC3)cc2c1 [Compound 3096, (1R,3r,5S)-bicyclo[3.1.0]hexan-3-yl((2R,6S,7R,9S,13aS,14aR,16aS,Z)-2-((6-methoxy-3-morpholinoisoquinolin-1-yl)oxy)-7,9-dimethyl-14a-(((1-methylcyclopropyl)sulfonyl)carbamoyl)-5,16-dioxo-1,2,3,5,6,7,8,9,10,11,13a,14,14a,15,16,16a-hexadecahydrocyclopropa[e]pyrrolo[1,2-a][1,4]diazacyclopentadecin-6-yl)carbamate] | 4.82 to 103 | < 5.46
